What was measured:
PAR-2 = PAR-2 on peripheral blood neutrophils, two-color FACS; format: in vivo, mouse
Protocol: (§1) Protocol. TF expression on mouse neutrophils. To study the presence of PAR-2 on peripheral blood neutrophils, two-color FACS analysis was performed. For this purpose heparinized whole mouse blood was stained with FITC-labeled anti-mouse Ly-6G (Gr-1) for FL1 (BD Biosciences Pharmingen, CA) to identify neutrophils and biotinylated anti-PAR-2 antibody (Santa Cruz Biotechnology, Inc, Santa Cruz, Calif.) and streptavidin-PerCP (BD Biosciences Pharmingen, CA) as the FL3 fluorochrome. Red cells were lyzed with ACK buffer. Preparations were then incubated with SA-PerCP and analyzed by FACS using a FACscan (BD Biosciences, CA).

neutrophils [1] = assay: Phagocytosis assay, latex beads, flow cytometry; format: in vivo, mouse
Protocol: Phagocytosis assay. Heparanized whole blood was incubated (1 h, 37° C., 5% CO2) with 1 μm of fluorescent yellow-green latex beads (Sigma-Aldrich) (ratio phagocyte/target 1:25) that had been preopsonized with normal mouse serum for 1 h. Internalization of beads was determined by flow cytometry using a FACSCalibur (BD Biosciences) flow cytometer.

neutrophils [2] = assay: Respiratory burst activity (ROS) in neutrophils, DHR flow cytometry; format: in vivo, mouse
Protocol: Respiratory burst activity in neutrophils. Intracellular reactive oxygen (ROS) production was assessed with dihydrorhodamine 123 (DHR, Sigma Chemical, St Louis, Mo.) by flow cytometry. This primarily non-fluorescent dye becomes fluorescent upon oxidation to rhodamine by ROS produced during the respiratory burst. DHR (10 μmol/L) was added to heparanized whole blood, and this mixture was incubated at 37° C. for 45 min. Red cells were lysed as described above and reactive-oxygen production was analyzed by […] in FL1.

TF [3] = assay: TF on peripheral blood neutrophils, two-color FACS; format: in vivo, mouse; details: flow cytometry
Protocol: as §1, with “Protocol.” for “Protocol. TF expression on mouse neutrophils.”, “TF” for “PAR-2”, “rat anti-mTF” for “anti-PAR-2”, “1H1” for “(Santa Cruz Biotechnology, Inc, Santa Cruz, Calif.)”

[4] = tested on: murine model of antiphospholipid syndrome (APS); assay: Fetal resorption in murine model of APS (aPL-treated pregnant mice); format: in vivo; details: uterus from a mouse treated with aPL+simvastatin, day 15, FIG. 3
Protocol: Protocol. […] The stock solution was diluted to the appropriate concentration in sterile PBS.
Protocol. Pregnant C57BL/6 mice were treated with IgG (10 mg i.p.) from a healthy non-autoimmune individual (NH-IgG), or different patients with APS (aPL-IgG) on days 8 and 12 of pregnancy. Mice were sacrificed on day 15 of pregnancy, uteri were dissected, fetuses were weighed, and frequency of fetal resorption calculated (number of resorptions/number of fetuses+number of resorptions).
Protocol. Pregnant mice were treated with pravastatin (0.2 μg/g bw=5 μg/mouse, i.p 18 hours prior to aPL or NHIgG injections on days 8 and 12). Pravastatin (Sigma Chemical, St Louis, Mo.) was dissolved in EtOH at a concentration of 10 mg/mL and diluted with NaCl 0.9% in a ratio of 1:1000 to yield a final concentration of 10 μg pravastatin per 1 mL carrier. The NaCl 0.9%-based carrier solution for the placebo group was prepared accordingly to include EtOH only (i.e., without pravastatin) at a concentration of 1:1000.

SM9-1 trophoblast cells [5] = assay: SM9-1 trophoblast cell proliferation, light microscopy; format: cell-based, mouse; details: SM9-1 cells incubated with sFlt-1 or monocyte supernatants, 72 hours; VEGF 500 pg/ml; pravastatin 5 μg/ml 3 hours prior
Protocol: (§2) Protocol. SM9-1 trophoblast cells, derived from a gestational day 9 Swiss-Webster mouse placenta (SM9-1) (Bowen et al., Biol Reprod 60:428-434.), were incubated with the supernatants from monocytes incubated with C5a containing high levels of sFlt-1 (Girardi et al., 2006, J Exp Med 203:2165-2175). Some SM9-1 cells were incubated in the presence of increasing amounts of mouse sFlt-1 (R&D Systems) (1000, 2000, 4000 and 8000 pg/ml). After 72 hours, cell proliferation was evaluated by light microscopy. Some SM9-1 cells were incubated with pravastatin (5 μg/ml) for 3 hours prior to incubation with sFlt-1. Mouse VEGF (500 pg/ml) (R&D systems) was added to some SM9-1 incubated with sFlt-1 or monocytes supernatants. Immunohistochemical identification of TF with 1H1 and superoxide production by DHE was performed on the SM9-1 cells after 72 hours of culture.
(§3) Protocol. SM9-1 trophoblast cells were prepared as described in Example 21. Isolated SM9-1 cells were incubated in the presence of increasing amounts of mouse sFlt-1 (R&D Systems) (1000, 2000, 4000 and 8000 pg/ml). After 72 hours, cell proliferation was evaluated by light microscopy. SM9-1 cells were also incubated with pravastatin (5 μg/ml) for 3 hours prior to incubation with sFlt-1. Immunohistochemical identification of TF with 1H1 and superoxide production by DHE was performed on the SM9-1 cells after 72 hours of culture as described above.

TF [6] = assay: SM9-1 trophoblast TF immunohistochemistry with 1H1; format: cell-based, mouse; details: SM9-1 cells incubated with sFlt-1 or monocyte supernatants, 72 hours; VEGF 500 pg/ml; pravastatin 5 μg/ml 3 hours prior
Protocol: as §2, §3

SM9-1 trophoblast cells [7] = assay: SM9-1 trophoblast superoxide production by DHE; format: cell-based, mouse; details: SM9-1 cells incubated with sFlt-1 or monocyte supernatants, 72 hours; VEGF 500 pg/ml; pravastatin 5 μg/ml 3 hours prior
Protocol: as §2, §3

monocytes = assay: sFlt-1 release by monocytes in vitro (ELISA); format: cell-based, mouse; details: 10 nM C5a for 4 h; pravastatin 5 μg/ml for 3 hours prior to C5a
Protocol: Protocol. Mice with a selective deletion of the TF gene in myeloid cells (TF^floxed/floxed/LysM-Cre mice) (Redecha et al., supra), were used for isolation of monocytes to study sVEGFR-1 production in vitro. Blockade of TF was carried out as in Example 17 by i.p. injections of anti-mTF antibody 1H1.
Protocol. Splenocytes were prepared from non pregnant CBA/J female mice and incubated for 4 h in culture medium supplemented with 10% inactivated fetal bovine serum (FBS). Non adherent cells were removed and adherent cells (>95% peroxidase-positive) were incubated in culture medium with the addition of 10 nM mouse recombinant C5a. A group of adherent monocytes was treated for 3 hours with pravastatin (5 μg/ml) prior to incubation with C5a. After 4 h of incubation with C5a, culture supernatants were collected and analyzed for sVEGFR-1 by ELISA (R&D Systems).

## CCC(C)(C)C(=O)O[C@H]1C[C@@H](C)C=C2C=C[C@H](C)[C@H](CC[C@@H]3C[C@@H](O)CC(=O)O3)[C@H]21 [Simvastatin, simvastatin]
PAR-2; aPL + simvastatin
  PAR-2 (number of PAR-2 positive cells): 7.4 ± 3.9
PAR-2; treatment given alone
  PAR-2 (number of PAR-2 positive cells): 6.9 ± 2.3
Neutrophils [1]; aPL + Simvastatin
  Phagocytosis: 16.2 ± 2.9 % of positive cells
Neutrophils [1]; treatment given alone
  Phagocytosis: 18.7 ± 1.0 % of positive cells
Neutrophils [2]; aPL + Simvastatin
  ROS: 10.4 ± 5.4 % of positive cells
Neutrophils [2]; treatment given alone
  ROS: 10.4 ± 4.5 % of positive cells
TF [3]; aPL + Simvastatin
  TF: 10 ± 5.7 % of positive cells
TF [3]; treatment given alone
  TF: 6.6 ± 2.2 % of positive cells
[4]
  viable fetuses in uterus: 7

## VEGF
SM9-1 trophoblast cells [5]
  cell proliferation / cell growth: restored cell proliferation
TF [6]
  TF staining / expression: prevented TF expression
SM9-1 trophoblast cells [7]
  superoxide production / oxidative damage (DHE): prevented oxidative damage

B1: C5a: mouse recombinant C5a, complement component used to stimulate monocytes (protein, UniProt P06684 679-755, looked up)
C5a anaphylatoxin: NLHLLRQKIEEQAAKYKHSVPKKCCYDGARVNFYETCEERVARVTIGPLCIRAFNECCTIANKIRKESPHKPVQLGR
modifications: C5a anaphylatoxin
notes: mouse recombinant C5a, complement component used to stimulate monocytes
monocytes
  sFlt-1 released by monocytes: 6749 ± 1927 pg/mL

B2: sFlt-1: soluble form of the VEGF-1 receptor, antiangiogenic molecule that sequesters VEGF (R&D Systems) (protein)
chain: YGSGSKLKVPELSLKGTQHVMQAGQTLFLKCRGEAAHSWSLPTTVSQEDKRLSITPPSACGRDNRQFCSTLTLDTAQANHTGLYTCRYLPTSTSKKKKAESSIYIFVSDAGSPFIEMHTDIPKLVHMTEGRQLIIPCRVTSPNVTVTLKKFPFDTLTPDGQRITWDSRRGFIIANATYKEIGLLNCEATVNGHLYQTNYLTHRQTNTILDVQIRPPSPVRLLHGQTLVLNCTATTELNTRVQMSWNYPGKATKRASIRQRIDRSHSHNNVFHSVLKINNVESRDKGLYTCRVKSGSSFQSFNTSVHVYEKGFISVKHRKQPVQETTAGRRSYRLSMKVKAFPSPEIVWLKDGSPATLKSARYLVHGYSLIIKDVTTEDAGDYTILLGIKQSRLFKNLTATLIVNVKPQIYEKSVSSLPSPPLYPLGSRQVLTCTVYGIPRPTITWLWHPCHHNHSKERYDFCTENEESFILDPSSNLGNRIESISQRMTVIEGTNKTVSTLVVADSQTPGIYSCRAFNKIGTVERNIKFYVTDVPNGFHVSLEKMPAEGEDLKLSCVVNKFLYRDITWILLRTVNNRTMHHSISKQKMATTQDYSITLNLVIKNVSLEDSGTYACRARNIYTGEDILRKTEVLVRDSEAPHLLQNLSDYEVSISGSTTLDCQARGVPAPQITWFKNNHKIQQEPGIILGPGNSTLFIERVTEEDEGVYRCRATNQKGAVESAAYLTVQGTSDKSNLE
SM9-1 trophoblast cells [5]
  cell proliferation / cell growth: diminished cell proliferation
TF [6]
  TF staining / expression: Increased TF staining
SM9-1 trophoblast cells [7]
  superoxide production / oxidative damage (DHE): increased superoxide production

— US20090312411A1, “PREVENTING OR REDUCING RISK OF MISCARRIAGES” (New York Society for the Raptured and Crippled Maintaining …, priority 2008, published 2009)
